Results on 5 molecules are retold here after paper PMC8965563, “PaP1, a Broad-Spectrum Lysin-Derived Cationic Peptide to Treat Polymicrobial Skin Infections” (Frontiers in Microbiology, 2022).

Like-named read-outs stand apart in the source and are kept apart here.

For test [1], the system named is S. aureus strain NRS384 (MRSA). The experiment in a line: Murine burn wound infection model, prophylactic. In kind it is in vivo, Staphylococcus aureus. Particulars: monotherapy: 1% (wt/vol) PaP1, or 0.02% or 0.2% (wt/vol) mupirocin, topical in diH2O, 1 h before and 2 h after infection with 10^6 CFU; female CD1 mice, third-degree burns; counts 3 h post-infection; control ~10^6 CFU/g tissue; geometric mean.

The test system of test [2] is P. aeruginosa strain PAO1. Particulars: 20 mM Tris–HCl, pH 7.2, 1 h, 37°C, log-phase bacteria ~10^5–10^6 CFU/ml, limit of detection 10 CFU/ml, triplicate experiments.
Where [3] appears, read: peptide 10 μg/ml, serial dilution and plating.

As for `C/C(=C\C(=O)OCCCCCCCCC(=O)O)C[C@@H]1OC[C@H](C[C@@H]2O[C@H]2[C@@H](C)[C@H](C)O)[C@@H](O)[C@H]1O` [mupirocin], in test [1], the “reduction of MRSA viability vs untreated control” value is reported as 1.1–1.2 log10-fold. As for “NAGDYAGAAEQFLRWNKAGGKVLPGLVRRRA [PaP1-2]”, the “reduction of bacterial viability (log10-fold kill)” value (“reduction … (log10-fold kill)” below) in test [2] (setting [3]) worked out at 1.2 log10-fold. Take “NAGDYAGAAEQFLRWNKAGGKVLPGLVRRRASERELFLGAA [PaP1-1]”: the “reduction … (log10-fold kill)” value in test [2] (peptide 5 μg/ml, plating) is listed as “ineffective”; in test [2] (setting [3]), “ineffective”. Turning to “NAGDYAGAAEQFLRWNKAGGKVLPGLVRRRK [PaP1-3]”, the “reduction … (log10-fold kill)” value in test [2] (peptide 5 μg/ml, plating) was 2.4 log10-fold; in test [2] (setting [3]), “below the limit of detection”.

“QYCANDRVGNLWVEAQEGRKPLRSSAKFKGGAQRRSGLA [PaP1-6]”: the “reduction … (log10-fold kill)” value in test [2] (setting [3]) was “retains bactericidal activity”.
